Assay results as given in PMC7864192 (Cancers, 2021).
pIC50: −log10 of the molar value. Read-outs that look alike come from different tables or passages of the source.

Key:
[1] = tested on: GCPA096 T1.XV patient-derived AGCT cell line; test: Cell viability drug screen (Cell Titer Glo 2.0, 72 h), mono- and combination therapy, GCPA096T1.XV; details: Homo sapiens, 72 h, read-out: IC50 in monotherapy
Description: (§1) Cell lines were seeded at a density of 500 cells/well in 40 uL in 384-well plates (Corning, NY, USA) with the Multidrop™ cell dispenser (Thermo Fischer Scientific, Waltham, MA, USA) and sealed with Breathe-Easy® membrane (Sigma-Aldrich, St. Louis, MO, USA) to prevent evaporation. The SVOG-3e line was seeded at 1000 cells/well due to contact-dependent growth requirements. For each cell line, three biological repeats and two technical repeats each were performed in order to ensure the validity of the drug screens. […] Subsequently, 11 drugs and 12 drug combinations were dispensed and all wells (excluding blanks and non-DMSO control wells) were normalized to 1% DMSO using the HP Tecan D300e Digital Dispenser (Hewlett-Packard, Palo Alto, CA, USA). All drugs were applied in linear concentration ranges (Table 2), including 16 data points to enable combination drug testing at constant ratios (Table 3). Next, the plates were covered with the Breathe-Easy membrane and incubated. After 72 h, the Multidrop dispensed 15 uL per well of Cell Titer Glo 2.0 (Thermo Fischer Scientific, Waltham, MA, USA) and plates were incubated in the dark for 10 min. After incubation, luminescence excitation was assessed in the Spectramax reader (Molecular Devices, San Jose, CA, USA) (top read, luminescence excitation at 500 nm) and raw data were processed in Microsoft Excel to subtract background luminescence. The Z-factor, a mathematical method used to quantify the quality of a drug screen based on the calculation of the separation band between the values of the positive and negative controls, was utilized to assess the quality of drug screens [54]. Screens with a Z-factor value of >0.5 were used for further analysis.
(§2) Overall cell survival (in %) was plotted against the drug concentration range of each drug (in log10[μM]) using GraphPad Prism 8.3.1. Values that exceeded 100% survival (within +20% biological deviation) were normalized to 100% survival. Similarly, values below 0% cell survival (within −20% biological deviation) were normalized to 0% survival. Values exceeding this deviation were excluded. Dose–response curves were obtained using the model “log(inhibitor) vs. variable slope (normalized response)” to fit the dose–response curves and R^2 values were used to indicate how well the model fit the data (Supplementary Materials Figures S4 and S5). […] The maximum plasma concentration (Cmax) and the plasma concentration at steady state (Css) were used as toxicity thresholds. The Cmax was utilized for drugs in which short, high-dosage time courses are required, while the Css was used for maintenance therapy regimes such as anti-hormonal treatment. […] The IC50 values were calculated based on the Chou–Talalay method using Compusyn software [55]. For anti-hormonal treatment, mostly provided as maintenance therapy, we used IC10 values in addition to the IC50.
(§3) In addition to the 11 monotherapies, 12 drug combinations were tested (Table 3) simultaneously with the individual drug treatments in the same 384-well plate. […] Synergy was evaluated using the mass action law, a systematic analysis assessing dose–response dynamics in a cost-effective manner [56, 57]. The combination index (CI) was used to indicate antagonistic (CI > 1) additive (CI = 1) and synergistic (CI < 1) effects [55].

[2] = tested on: GCPA096 T1.I patient-derived AGCT cell line; test: Cell viability drug screen (Cell Titer Glo 2.0, 72 h), mono- and combination therapy, GCPA096T1.I; details: Homo sapiens, read-out: IC50 in monotherapy
[3] = tested on: GCPA028 T1.II patient-derived AGCT cell line; test: Cell viability drug screen (Cell Titer Glo 2.0, 72 h), mono- and combination therapy, GCPA028; details: Homo sapiens, 72 h, read-out: IC50 in monotherapy
[4] = tested on: GCPA113 T1.III patient-derived AGCT cell line; test: Cell viability drug screen (Cell Titer Glo 2.0, 72 h), mono- and combination therapy, GCPA113T1.III; details: Homo sapiens, read-out: IC50 in monotherapy
Description: (§4) Cell lines were seeded at a density of 500 cells/well in 40 uL in 384-well plates (Corning, NY, USA) with the Multidrop™ cell dispenser (Thermo Fischer Scientific, Waltham, MA, USA) and sealed with Breathe-Easy® membrane (Sigma-Aldrich, St. Louis, MO, USA) to prevent evaporation. […] For each cell line, three biological repeats and two technical repeats each were performed in order to ensure the validity of the drug screens. […] Subsequently, 11 drugs and 12 drug combinations were dispensed and all wells (excluding blanks and non-DMSO control wells) were normalized to 1% DMSO using the HP Tecan D300e Digital Dispenser (Hewlett-Packard, Palo Alto, CA, USA). […] Next, the plates were covered with the Breathe-Easy membrane and incubated. After 72 h, the Multidrop dispensed 15 uL per well of Cell Titer Glo 2.0 (Thermo Fischer Scientific, Waltham, MA, USA) and plates were incubated in the dark for 10 min. After incubation, luminescence excitation was assessed in the Spectramax reader (Molecular Devices, San Jose, CA, USA) (top read, luminescence excitation at 500 nm) and raw data were processed in Microsoft Excel to subtract background luminescence. The Z-factor, a mathematical method used to quantify the quality of a drug screen based on the calculation of the separation band between the values of the positive and negative controls, was utilized to assess the quality of drug screens [54]. Screens with a Z-factor value of >0.5 were used for further analysis.
(§5) Overall cell survival (in %) was plotted against the drug concentration range of each drug (in log10[μM]) using GraphPad Prism 8.3.1. Values that exceeded 100% survival (within +20% biological deviation) were normalized to 100% survival. Similarly, values below 0% cell survival (within −20% biological deviation) were normalized to 0% survival. Values exceeding this deviation were excluded. Dose–response curves were obtained using the model “log(inhibitor) vs. variable slope (normalized response)” to fit the dose–response curves and R^2 values were used to indicate how well the model fit the data (Supplementary Materials Figures S4 and S5). […] The IC50 values were calculated based on the Chou–Talalay method using Compusyn software [55]. For anti-hormonal treatment, mostly provided as maintenance therapy, we used IC10 values in addition to the IC50.
as §3

[5] = tested on: GCPA096 T1.V patient-derived AGCT cell line; test: Cell viability drug screen (Cell Titer Glo 2.0, 72 h), mono- and combination therapy, GCPA096T1.V; details: Homo sapiens, 72 h, read-out: IC50 in monotherapy
Description: (§6) Cell lines were seeded at a density of 500 cells/well in 40 uL in 384-well plates (Corning, NY, USA) with the Multidrop™ cell dispenser (Thermo Fischer Scientific, Waltham, MA, USA) and sealed with Breathe-Easy® membrane (Sigma-Aldrich, St. Louis, MO, USA) to prevent evaporation. The SVOG-3e line was seeded at 1000 cells/well due to contact-dependent growth requirements. For each cell line, three biological repeats and two technical repeats each were performed in order to ensure the validity of the drug screens. […] Subsequently, 11 drugs and 12 drug combinations were dispensed and all wells (excluding blanks and non-DMSO control wells) were normalized to 1% DMSO using the HP Tecan D300e Digital Dispenser (Hewlett-Packard, Palo Alto, CA, USA). All drugs were applied in linear concentration ranges (Table 2), including 16 data points to enable combination drug testing at constant ratios (Table 3). Next, the plates were covered with the Breathe-Easy membrane and incubated. After 72 h, the Multidrop dispensed 15 uL per well of Cell Titer Glo 2.0 (Thermo Fischer Scientific, Waltham, MA, USA) and plates were incubated in the dark for 10 min. After incubation, luminescence excitation was assessed in the Spectramax reader (Molecular Devices, San Jose, CA, USA) (top read, luminescence excitation at 500 nm) and raw data were processed in Microsoft Excel to subtract background luminescence. […] Screens with a Z-factor value of >0.5 were used for further analysis.
as §2, §3

[6] = tested on: GCPA096 T1.II patient-derived AGCT cell line; test: Cell viability drug screen (Cell Titer Glo 2.0, 72 h), mono- and combination therapy, GCPA096T1.II; details: Homo sapiens, 72 h, read-out: IC50 in monotherapy
Description: as §6, §2, §3

[7] = tested on: GCPA096 T1.XVI patient-derived AGCT cell line; test: Cell viability drug screen (Cell Titer Glo 2.0, 72 h), mono- and combination therapy, GCPA096T1.XVI; details: Homo sapiens, read-out: IC50 in monotherapy
Description: as §6, §2, §3

[8] = tested on: GCPA113 T1.II patient-derived AGCT cell line; test: Cell viability drug screen (Cell Titer Glo 2.0, 72 h), mono- and combination therapy, GCPA113T1.II; details: Homo sapiens, read-out: IC50 in monotherapy
[9] = tested on: GCPA007 T2.I patient-derived AGCT cell line; test: Cell viability drug screen (Cell Titer Glo 2.0, 72 h), mono- and combination therapy, GCPA007T2.I; details: Homo sapiens, 72 h, read-out: IC50 in monotherapy
Description: as §6, §2, §3

[10] = tested on: GCPA113 T1.I patient-derived AGCT cell line; test: Cell viability drug screen (Cell Titer Glo 2.0, 72 h), mono- and combination therapy, GCPA113T1.I; details: Homo sapiens, read-out: IC50 in monotherapy
Description: as §4, §5, §3

[11] = tested on: GCPA007 T2.IV patient-derived AGCT cell line; test: Cell viability drug screen (Cell Titer Glo 2.0, 72 h), mono- and combination therapy, GCPA007T2.IV; details: Homo sapiens, read-out: IC50 in monotherapy
Description: as §4, §5, §3

[12] = tested on: KGN cells (AGCT cell line); test: Cell viability drug screen (Cell Titer Glo 2.0, 72 h), mono- and combination therapy, KGN; details: Homo sapiens, read-out: IC50 in monotherapy
[13] = tested on: GCPA108 T3.IV patient-derived AGCT cell line; test: Cell viability drug screen (Cell Titer Glo 2.0, 72 h), mono- and combination therapy, GCPA108T3.IV; details: Homo sapiens, read-out: IC50 in monotherapy
Description: as §1, §2, §3

[14] = tested on: AGCT cell lines; test: Cell viability drug screen (72 h), summary over AGCT cell lines (12 patient-derived, with or without KGN); assay type: cell-based, human

Row | Compound | pIC50 [1] | pIC50 ([2]; 72 h) | pIC50 [3] | pIC50 ([4]; 72 h) | pIC50 [5] | pIC50 [6] | pIC50 ([7]; 72 h) | pIC50 ([8]; 72 h) | pIC50 [9] | pIC50 ([10]; 72 h) | pIC50 ([11]; 72 h) | pIC50 ([12]; 72 h) | pIC50 ([13]; 72 h) | further results
1 | N#Cc1ccc(C(c2ccc(C#N)cc2)n2cncn2)cc1 [Letrozole] | < 4.30 | < 4.30 | < 4.30 | < 4.30 | < 4.30 | < 4.30 | < 4.30 | < 4.30 | < 4.30 | < 4.30 | < 4.30 | 4.45 | – | –
2 | CC(=O)O[C@H]1C(=O)[C@@]2(C)[C@H]([C@H](OC(=O)c3ccccc3)[C@]3(O)C[C@H](OC(=O)[C@H](O)[C@@H](NC(=O)c4ccccc4)c4ccccc4)C(C)=C1C3(C)C)[C@]1(OC(C)=O)CO[C@@H]1C[C@@H]2O [Paclitaxel] | < 4.30 | < 4.30 | – | < 4.30 | < 4.30 | < 4.30 | < 4.30 | 4.32 | < 4.30 | < 4.30 | < 4.30 | < 4.30 | < 4.30 | pIC50 [2]: < 4.30; pIC50 [4]: < 4.30; pIC50 [13]: < 4.30; pIC50 ([14]; Homo sapiens, median over AGCT cell lines, read-out: median IC50 in monotherapy): 4.03; pIC50 [7]: < 4.30; pIC50 [8]: 4.32; pIC50 [10]: < 4.30; pIC50 [11]: < 4.30; pIC50 [12]: < 4.30
3 | CC/C(=C(\c1ccccc1)c1ccc(OCCN(C)C)cc1)c1ccccc1 [Tamoxifen] | – | – | – | – | – | – | – | – | – | – | – | – | – | range IC10 (concentration needed to obtain 10% cell death) ([14]; range over AGCT cell lines, monotherapy): 6.04 to 15.03 µM
4 | CC(=O)[C@@]1(O)CC[C@H]2[C@@H]3CCC4=CC(=O)CCC4=C3[C@@H](c3ccc(N(C)C)cc3)C[C@@]21C [Ulipristal] | < 4.30 | < 4.30 | 4.30 | < 4.30 | < 4.30 | < 4.30 | < 4.30 | < 4.30 | < 4.30 | < 4.30 | < 4.30 | 4.36 | < 4.30 | –
